Legend:
Type in all cases: functional
Details in all cases: read-out: GI
RPMI-8226 = test: Growth inhibition of human RPMI-8226 cells at 10 uM incubated for 48 hrs by sulforhodamine B assay relative to control
SF-295 = test: Growth inhibition of human SF-295 cells at 10 uM incubated for 48 hrs by sulforhodamine B assay relative to control
DU-145 = test: Growth inhibition of human DU-145 cells at 10 uM incubated for 48 hrs by sulforhodamine B assay relative to control
SK-OV-3 = test: Growth inhibition of human SK-OV-3 cells at 10 uM incubated for 48 hrs by sulforhodamine B assay relative to control
NCI-H522 = test: Growth inhibition of human NCI-H522 cells at 10 uM incubated for 48 hrs by sulforhodamine B assay relative to control
HL-60(TB) = test: Growth inhibition of human HL-60(TB) cells at 10 uM incubated for 48 hrs by sulforhodamine B assay relative to control
UACC-257 = test: Growth inhibition of human UACC-257 cells at 10 uM incubated for 48 hrs by sulforhodamine B assay relative to control
K562 = test: Growth inhibition of human K562 cells at 10 uM incubated for 48 hrs by sulforhodamine B assay relative to control
HCT-15 = test: Growth inhibition of human HCT-15 cells at 10 uM incubated for 48 hrs by sulforhodamine B assay relative to control
SK-MEL-5 = test: Growth inhibition of human SK-MEL-5 cells at 10 uM incubated for 48 hrs by sulforhodamine B assay relative to control
HOP-92 = test: Growth inhibition of human HOP-92 cells at 10 uM incubated for 48 hrs by sulforhodamine B assay relative to control
MDA-MB-231 = test: Growth inhibition of human MDA-MB-231 cells at 10 uM incubated for 48 hrs by sulforhodamine B assay relative to control
OVCAR-8 = test: Growth inhibition of human OVCAR-8 cells at 10 uM incubated for 48 hrs by sulforhodamine B assay relative to control
HOP-62 = test: Growth inhibition of human HOP-62 cells at 10 uM incubated for 48 hrs by sulforhodamine B assay relative to control
UACC-62 = test: Growth inhibition of human UACC-62 cells at 10 uM incubated for 48 hrs by sulforhodamine B assay relative to control
CCRF-CEM = test: Growth inhibition of human CCRF-CEM cells at 10 uM incubated for 48 hrs by sulforhodamine B assay relative to control
NCI-H23 = test: Growth inhibition of human NCI-H23 cells at 10 uM incubated for 48 hrs by sulforhodamine B assay relative to control
MDA-MB-435 = test: Growth inhibition of human MDA-MB-435 cells at 10 uM incubated for 48 hrs by sulforhodamine B assay relative to control
HCC 2998 = test: Growth inhibition of human HCC 2998 cells at 10 uM incubated for 48 hrs by sulforhodamine B assay relative to control
MCF7 = test: Growth inhibition of human MCF7 cells at 10 uM incubated for 48 hrs by sulforhodamine B assay relative to control
BT-549 = test: Growth inhibition of human BT-549 cells at 10 uM incubated for 48 hrs by sulforhodamine B assay relative to control
LOX IMVI = test: Growth inhibition of human LOX IMVI cells at 10 uM incubated for 48 hrs by sulforhodamine B assay relative to control
T47D = test: Growth inhibition of human T47D cells at 10 uM incubated for 48 hrs by sulforhodamine B assay relative to control
M14 = test: Growth inhibition of human M14 cells at 10 uM incubated for 48 hrs by sulforhodamine B assay relative to control
TK-10 = test: Growth inhibition of human TK-10 cells at 10 uM incubated for 48 hrs by sulforhodamine B assay relative to control
UO-31 = test: Growth inhibition of human UO-31 cells at 10 uM incubated for 48 hrs by sulforhodamine B assay relative to control
SF-539 = test: Growth inhibition of human SF-539 cells at 10 uM incubated for 48 hrs by sulforhodamine B assay relative to control
HT-29 = test: Growth inhibition of human HT-29 cells at 10 uM incubated for 48 hrs by sulforhodamine B assay relative to control
SF-268 = test: Growth inhibition of human SF-268 cells at 10 uM incubated for 48 hrs by sulforhodamine B assay relative to control
RXF 393 = test: Growth inhibition of human RXF 393 cells at 10 uM incubated for 48 hrs by sulforhodamine B assay relative to control
SNB-19 = test: Growth inhibition of human SNB-19 cells at 10 uM incubated for 48 hrs by sulforhodamine B assay relative to control
SNB-75 = test: Growth inhibition of human SNB-75 cells at 10 uM incubated for 48 hrs by sulforhodamine B assay relative to control
OVCAR-4 = test: Growth inhibition of human OVCAR-4 cells at 10 uM incubated for 48 hrs by sulforhodamine B assay relative to control
PC-3 = test: Growth inhibition of human PC-3 cells at 10 uM incubated for 48 hrs by sulforhodamine B assay relative to control
KM12 = test: Growth inhibition of human KM12 cells at 10 uM incubated for 48 hrs by sulforhodamine B assay relative to control
SK-MEL-28 = test: Growth inhibition of human SK-MEL-28 cells at 10 uM incubated for 48 hrs by sulforhodamine B assay relative to control
ACHN = test: Growth inhibition of human ACHN cells at 10 uM incubated for 48 hrs by sulforhodamine B assay relative to control
MOLT-4 = test: Growth inhibition of human MOLT-4 cells at 10 uM incubated for 48 hrs by sulforhodamine B assay relative to control
HCT-116 = test: Growth inhibition of human HCT-116 cells at 10 uM incubated for 48 hrs by sulforhodamine B assay relative to control
U-251 = test: Growth inhibition of human U-251 cells at 10 uM incubated for 48 hrs by sulforhodamine B assay relative to control
A549 = test: Growth inhibition of human A549/ATCC cells at 10 uM incubated for 48 hrs by sulforhodamine B assay relative to control
SR = test: Growth inhibition of human SR cells at 10 uM incubated for 48 hrs by sulforhodamine B assay relative to control
MDA-MB-468 = test: Growth inhibition of human MDA-MB-468 cells at 10 uM incubated for 48 hrs by sulforhodamine B assay relative to control
SN12C = test: Growth inhibition of human SN12C cells at 10 uM incubated for 48 hrs by sulforhodamine B assay relative to control

O=C(Cn1nnc2ccccc21)Nc1ccc(-c2nc3ccccc3s2)cc1
inhibition of growth at 10 µM (RPMI-8226): 14.7% | inhibition of growth at 10 µM (SF-295): 15.2% | inhibition of growth at 10 µM (DU-145): 26% | inhibition of growth at 10 µM (SK-OV-3): -4.22% | inhibition of growth at 10 µM (NCI-H522): 20.8% | inhibition of growth at 10 µM (HL-60(TB)): 9.24% | inhibition of growth at 10 µM (UACC-257): 5.5% | inhibition of growth at 10 µM (K562): 44.8% | inhibition of growth at 10 µM (HCT-15): 8.49% | inhibition of growth at 10 µM (SK-MEL-5): 25.7% | inhibition of growth at 10 µM (HOP-92): 26.9% | inhibition of growth at 10 µM (MDA-MB-231): 5.25% | inhibition of growth at 10 µM (OVCAR-8): 1.53% | inhibition of growth at 10 µM (HOP-62): -1.24% | inhibition of growth at 10 µM (UACC-62): 2.9% | inhibition of growth at 10 µM (CCRF-CEM): 30.3% | inhibition of growth at 10 µM (NCI-H23): 19.3% | inhibition of growth at 10 µM (MDA-MB-435): 4.09% | inhibition of growth at 10 µM (HCC 2998): 6.26% | inhibition of growth at 10 µM (MCF7): 71.1% | inhibition of growth at 10 µM (BT-549): 13.5% | inhibition of growth at 10 µM (LOX IMVI): 15.8% | inhibition of growth at 10 µM (T47D): 33.1% | inhibition of growth at 10 µM (M14): 9.36% | inhibition of growth at 10 µM (TK-10): 5.23% | inhibition of growth at 10 µM (UO-31): 13.5% | inhibition of growth at 10 µM (SF-539): 28.8% | inhibition of growth at 10 µM (HT-29): -0.75% | inhibition of growth at 10 µM (SF-268): 7.63% | inhibition of growth at 10 µM (RXF 393): 0.05% | inhibition of growth at 10 µM (SNB-19): -2.9% | inhibition of growth at 10 µM (SNB-75): -6.26% | inhibition of growth at 10 µM (OVCAR-4): 27.8% | inhibition of growth at 10 µM (PC-3): 16.7% | inhibition of growth at 10 µM (KM12): 8.6% | inhibition of growth at 10 µM (SK-MEL-28): -1.87% | inhibition of growth at 10 µM (ACHN): -9.93% | inhibition of growth at 10 µM (MOLT-4): 38.4% | inhibition of growth at 10 µM (HCT-116): 2.6% | inhibition of growth at 10 µM (U-251): 10.4% | inhibition of growth at 10 µM (A549): 6.45% | inhibition of growth at 10 µM (SR): 59.9% | inhibition of growth at 10 µM (MDA-MB-468): 124% | inhibition of growth at 10 µM (SN12C): -0.79%

O=C(Cn1cnc2ccccc21)Nc1ccc(-c2nc3ccccc3s2)cc1
inhibition of growth at 10 µM (RPMI-8226): 62.6% | inhibition of growth at 10 µM (SF-295): 56.7% | inhibition of growth at 10 µM (DU-145): 21.8% | inhibition of growth at 10 µM (SK-OV-3): 15.1% | inhibition of growth at 10 µM (NCI-H522): 33.4% | inhibition of growth at 10 µM (HL-60(TB)): 29.8% | inhibition of growth at 10 µM (UACC-257): 37.9% | inhibition of growth at 10 µM (K562): 66.4% | inhibition of growth at 10 µM (HCT-15): 7.41% | inhibition of growth at 10 µM (SK-MEL-5): 70.9% | inhibition of growth at 10 µM (HOP-92): 18.4% | inhibition of growth at 10 µM (MDA-MB-231): 9.34% | inhibition of growth at 10 µM (OVCAR-8): 28% | inhibition of growth at 10 µM (HOP-62): 12.6% | inhibition of growth at 10 µM (UACC-62): 13% | inhibition of growth at 10 µM (CCRF-CEM): 27.1% | inhibition of growth at 10 µM (NCI-H23): 51.5% | inhibition of growth at 10 µM (MDA-MB-435): 32.3% | inhibition of growth at 10 µM (HCC 2998): 24.9% | inhibition of growth at 10 µM (MCF7): 50.6% | inhibition of growth at 10 µM (BT-549): 43.5% | inhibition of growth at 10 µM (LOX IMVI): 44.6% | inhibition of growth at 10 µM (T47D): 52.8% | inhibition of growth at 10 µM (M14): 13.6% | inhibition of growth at 10 µM (TK-10): 22.6% | inhibition of growth at 10 µM (UO-31): 35.4% | inhibition of growth at 10 µM (SF-539): 22.9% | inhibition of growth at 10 µM (HT-29): 12.7% | inhibition of growth at 10 µM (SF-268): 14.7% | inhibition of growth at 10 µM (RXF 393): 6.89% | inhibition of growth at 10 µM (SNB-19): 28.5% | inhibition of growth at 10 µM (SNB-75): 6.6% | inhibition of growth at 10 µM (OVCAR-4): 57.9% | inhibition of growth at 10 µM (PC-3): 33.3% | inhibition of growth at 10 µM (KM12): 24.9% | inhibition of growth at 10 µM (SK-MEL-28): -0.72% | inhibition of growth at 10 µM (ACHN): 15.5% | inhibition of growth at 10 µM (MOLT-4): 44.2% | inhibition of growth at 10 µM (HCT-116): 56.5% | inhibition of growth at 10 µM (U-251): 30.6% | inhibition of growth at 10 µM (A549): 39% | inhibition of growth at 10 µM (SR): 60% | inhibition of growth at 10 µM (MDA-MB-468): 70.3% | inhibition of growth at 10 µM (SN12C): 16.2%

Source: ChEMBL document CHEMBL4765227, “Hit to lead optimization of a series of N-[4-(1,3-benzothiazol-2-yl)phenyl]acetamides as monoacylglycerol lipase inhibitors with potential anticancer activity” (Eur J Med Chem, 2016)
